{
  "source": "paper PMC5513091",
  "about": "“A novel Alzheimer’s disease drug candidate targeting inflammation and fatty acid metabolism” (Alzheimer's Research & Therapy, 2017)",
  "key": {"[1]": {"assay": "Free feeding CAD-31 plasma and brain levels in mice", "assay_type": "in vivo", "experimental": "Sprague-Dawley rats had free access to food and water. CAD-31 was given by gavage to rats at 20 mg/kg in corn oil and intravenously in 15% HS 15/PBS. Whole-blood samples were collected from the jugular vein at every time point and brain collected after 20-ml saline perfusion. CAD-31 was extracted with acetonitrile and compared with standards on a TSQ Quantiva™ Triple Quadrupole Mass Spectrometer (Thermo Scientific, Waltham, MA, USA). For the mouse feeding studies, mice had free access to food containing 200 ppm CAD-31. Blood was collected by heart puncture, and the brain concentration was determined as with rats."}, "Acute Toxicity (PO)": {"assay": "Acute Toxicity (PO)", "assay_type": "in vivo"}, "[2]": {"tested_on": "Primary embryonic day 18 cortical cells", "assay": "Trophic factor withdrawal assay", "assay_type": "cell-based", "conditions": "Cortical neurone; Cortical neuron; cell viability; read-out: Half-maximal effective concentration, Trophic factor withdrawal", "experimental": "(§1) The various phenotypic screening assays were conducted as previously described. Briefly, HT-22, primary cortical neurons, or MC65 was plated and exposed to the different environmental stresses. Cells were treated with varying concentrations of CAD-31, and half-maximal effective concentration (EC50) was determined on the basis of cell viability.\n(§2) • An assay that mimics the dramatic loss of neurotrophic support in the old brain is the trophic factor withdrawal assay. Primary embryonic day 18 cortical cells are plated at low density in serum-free medium. At low density, the cells die within 2 days; they can be rescued by combinations of neurotrophic growth factors, but not by one alone ([19] and unpublished data). […] BDNF is a molecule that is also involved in promoting memory and neurogenesis and is reduced in the brain with age and in AD, as well as in other neurological disorders. BDNF has long been considered a drug target for AD [23]. […] A reduction in GSH is a common denominator of old age and essentially all chronic central nervous system (CNS) diseases. J147 and CAD-31 both effectively reduce oxidative stress, with EC50 of 6 nM and 20 nM, respectively. • CAD-31 also prevents loss of energy metabolism that leads to neuron cell death in an in vitro ischemia model. […]"}, "[3]": {"assay": "Body weights and food consumption during feeding study", "assay_type": "in vivo, mice", "conditions": "200 ppm in diet for 3 months, measured weekly; data not shown", "experimental": "The APPswe/PS1∆E9-transgenic mice were characterized previously. Line 85 mice carry two transgenes, the mouse/human chimeric APPswe, linked to Swedish familial AD and human PS1∆E9. At 10 months of age, female transgenic mice were fed a defined diet (Harlan Teklad; Envigo, Indianapolis, IN, USA) with and without CAD-31 (200 ppm, approximately 10 mg/kg/day). Treatment continued for 3 months, followed by behavior testing and tissue harvesting."}, "primary cortical neurons": {"tested_on": "primary cortical neurons", "assay": "Oxytosis", "assay_type": "cell-based", "conditions": "Primary cortical neuron; read-out: Half-maximal effective concentration, Oxytosis", "experimental": "as §1, §2"}, "Aβ1–42 [4]": {"tested_on": "Aβ1–42", "assay": "Aβ enzyme-linked immunosorbent assay", "assay_type": "in vivo, mice", "experimental": "(§3) Hippocampal tissue samples were homogenized in 10 volumes of radioimmunoprecipitation assay (RIPA) lysis buffer (50 mM Tris, pH 7.5, 150 mM NaCl, 0.1% SDS, 0.5% deoxycholate, and 1% Nonidet P-40) containing a cocktail of protease and phosphatase inhibitors [[…] each of pepstatin A, aprotinin, phosphoramidon, and leupeptin; 0.5 mM 4-(2-aminoethyl)benzenesulfonyl fluoride hydrochloride; 1 mM ethylene glycol-bis(β-aminoethyl ether)-N,N,N′,N′-tetraacetic acid; 5 mM fenvalerate; and 5 mM cantharidin]. Samples were sonicated (2 × 10 seconds) and centrifuged first at 10,000 × g for 10 minutes and then at 100,000 × g for 60 minutes at 4 °C. The 100,000 × g pellet was taken up either in 6 M guanidine for Aβ analysis or in SDS sample buffer for Western blot analysis. Protein concentrations in the cell extracts were determined using a bicinchoninic acid protein assay (Pierce Biotechnology, Rockford, IL, USA). Equal amounts of protein were solubilized in 2.5× SDS sample buffer, separated on 12% SDS-polyacrylamide gels, transferred to Immobilon-P (EMD Millipore, Billerica, MA, USA), and immunoblotted with the antibodies indicated in the Materials subsection above. For Western blot experiments, protein levels were normalized to actin levels. An unpaired t test was performed to compare two groups at a single time point. When comparing multiple groups, one-way analysis of variance (ANOVA) followed by Tukey’s post hoc test was used. All statistical analysis was conducted using GraphPad InStat software.\nAβ1–42 levels in hippocampal lysate were analyzed using Aβ1–42 enzyme-linked immunosorbent assay kits from Invitrogen (catalogue number KHB3442). All kit reagents were brought to room temperature before use. […] A quantity of 50 μl of Aβ peptide standards and samples was added in duplicate to 96-well plates precoated with antibody to the NH2-terminal region of Aβ. […] Stop solution was then added at 100 μl to each well, followed by reading the absorbance of each well at 450 nm. […] The concentrations of the samples were calculated from the standard curve and multiplied by the dilution factor."}, "ACC-1": {"tested_on": "ACC-1", "assay": "Immunoblotting of hippocampal tissue", "assay_type": "in vivo, mice", "conditions": "hippocampus", "experimental": "as §3"}, "ubiquitinated proteins": {"tested_on": "ubiquitinated proteins", "assay": "Immunoblotting of hippocampal tissue", "assay_type": "in vivo, mice", "conditions": "hippocampus", "experimental": "as §3"}, "[5]": {"tested_on": "autophagy markers LC3 and P62", "assay": "Immunoblotting of hippocampal tissue", "assay_type": "in vivo, mice", "conditions": "data not shown", "experimental": "as §3"}, "DCX": {"tested_on": "DCX", "assay": "Immunoblotting of hippocampal tissue", "assay_type": "in vivo, mice", "conditions": "hippocampus", "experimental": "as §3"}, "Aβ1–42 [6]": {"molecular_target": "Aβ1–42 (Homo sapiens, UniProt P05067)", "sequence (P05067 672-713 limits assumed)": "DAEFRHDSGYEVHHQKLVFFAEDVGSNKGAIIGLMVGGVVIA", "assay": "Thioflavin S Aβ1–42 aggregation assay", "assay_type": "biochemical", "conditions": "data not shown"}, "[7]": {"conditions": "mice fed ad libitum, 200 ppm in chow (about 10 mg/kg/day)"}, "[8]": {"conditions": "brain of CAD-31 treated hAPPswe/PS1ΔE9 mice (AD+31)"}},
  "data": [
    {"smiles": "Cc1ccc(N(/N=C/c2cccc(OC(F)(F)F)c2)C(=O)C(F)(F)F)c(C)c1", "note": "[CAD-31]", "values": [
      {"measurement": "maximum brain concentration, free-fed", "setting": "[1]; [7]", "result": 53, "unit": "nM"},
      {"measurement": "maximum plasma concentration, free-fed", "setting": "[1]; [7]", "result": 82, "unit": "nM"},
      {"measurement": "Free-Fed ~10 mg/kg/day Brain", "setting": "[1]; mice, 200 ppm in food", "result": 0.053, "unit": "µM"},
      {"measurement": "Free-Fed ~10 mg/kg/day Plasma", "setting": "[1]; mice, 200 ppm in food", "result": 0.082, "unit": "µM"},
      {"measurement": "acute toxicity", "setting": "Acute Toxicity (PO)", "result": "no sign of acute toxicity"},
      {"measurement": "Oral acute toxicity LD50", "setting": "Acute Toxicity (PO); observation one week post gavage", "result": ">2000", "unit": "mg/kg"},
      {"measurement": "EC50", "setting": "[2]", "result": 18, "unit": "nM"},
      {"measurement": "body weights and food consumption", "setting": "[3]", "result": "no significant differences between the groups"},
      {"measurement": "EC50", "setting": "primary cortical neurons", "result": 20, "unit": "nM"},
      {"measurement": "RIPA Insoluble Aβ1-42", "setting": "Aβ1–42 [4]; [8]", "result": "4581 ± 489.3", "unit": "pg/mg protein"},
      {"measurement": "RIPA Soluble Aβ1-42", "setting": "Aβ1–42 [4]; [8]", "result": "16.57 ± 3.359", "unit": "pg/mg protein"},
      {"measurement": "levels of soluble or insoluble Aβ1–42", "setting": "Aβ1–42 [4]; therapeutic paradigm, AD mice", "result": "did not reduce the levels of either soluble or insoluble Aβ1–42"},
      {"measurement": "phosphorylation of ACC-1", "setting": "ACC-1; AD mice", "result": "greatly increases the depressed level of phosphorylation in AD mice"},
      {"measurement": "total amount of ACC-1 protein", "setting": "ACC-1; AD mice", "result": "not significantly reduced"},
      {"measurement": "phosphorylation of ACC-1", "setting": "ACC-1; WT mice", "result": "decreases the phosphorylation of ACC-1 in WT mice"},
      {"measurement": "RIPA-insoluble ubiquitinated proteins", "setting": "ubiquitinated proteins; 13-month-old WT and AD mice", "result": "reduced"},
      {"measurement": "ubiquitinated proteins in the soluble fraction", "setting": "ubiquitinated proteins; data not shown", "result": "unchanged"},
      {"measurement": "expression of the autophagy markers LC3 and P62", "setting": "[5]", "result": "did not, however, alter the expression"},
      {"measurement": "expression of the NPC marker DCX", "setting": "DCX", "result": "increased the expression of the NPC marker DCX in the hippocampus"},
      {"measurement": "binding to and direct inhibition of Aβ1–42 aggregation", "setting": "Aβ1–42 [6]", "result": "Neither J147 nor CAD-31 binds to and directly inhibits Aβ1–42 aggregation"}
    ]}
  ]
}
